According to paper PMC5437844 (Journal of medicinal chemistry, 2017):
In brackets after ≈: the same amount, converted by molar mass. Entries after “also recorded” stand apart in the source; their conditions may differ. Read-outs that look alike come from different tables or passages of the source.

Legend:
VRE = conditions: administered orally, phase II clinical trial; cited from earlier work
[1] = system: vancomycin-resistant Enterococcus faecium ATCC 700221; experiment: Time-kill analysis; type: cell-based; conditions: 4 × MIC, 24 hour incubation, 37 °C
[2] = system: vancomycin-resistant Enterococcus faecalis HM-201; experiment: Time-kill analysis; type: cell-based; conditions: 4 × MIC, 24 hour incubation, 37 °C
[3] = system: human colorectal (HRT-18) cells; experiment: MTS cytotoxicity assay; type: cell-based; conditions: for Non-toxic up to (concentration): tested 5-40 μg/mL
[4] = system: vancomycin-resistant Enterococcus faecium HM-968; experiment: Multi-step resistance selection; type: cell-based; conditions: one-fold increase = MIC x → 2x
[5] = system: vancomycin-resistant Enterococcus faecalis ATCC 51299; experiment: Multi-step resistance selection; type: cell-based; conditions: one-fold increase = MIC x → 2x
E. coli ΔtolC = experiment: Bacterial Cytological Profiling; type: cell-based, Escherichia coli; conditions: 5 × MIC (25 μg/mL), two hours
E. faecalis NR-31975 = experiment: UDP-N-acetylmuramyl-pentapeptide accumulation; type: cell-based, Enterococcus faecalis; conditions: 10 × MIC, 30 minutes
human FPPS (HsFPPS) = human FPPS (HsFPPS) (Homo sapiens, UniProt P14324); experiment: HsFPPS inhibition assay; type: biochemical; conditions: data not shown
C. elegans AU37 = type: in vivo, Caenorhabditis elegans; conditions: 20 μg/mL, 24 hours exposure
[6] = system: E. faecalis and E. faecium; experiment: MIC and MBC against strains of E. faecalis and E. faecium; type: cell-based
[7] = polar aminoguanidine headgroup; source not stated; cited from earlier work
[8] = human liver microsomes; cited from earlier work
Caco-2 = conditions: polarized cell monolayer; ref not given; cited from earlier work
[9] = system: vancomycin-resistant S. aureus (VRSA); conditions: cited from earlier work
E. faecalis = experiment: MIC against E. faecalis isolates; conditions: Enterococcus faecalis
Gram-negative pathogens = experiment: MIC against Gram-negative pathogens
E. faecalis ATCC 51299 = experiment: Checkerboard assay; type: cell-based, Enterococcus faecalis; conditions: antibiotic in combination with compound 1
E. faecium ATCC 700221 = experiment: Re-sensitization of VRE to vancomycin; type: cell-based, Enterococcus faecium; conditions: for Fold-improvement in MIC of vancomycin: with ½ × MIC Compound 1
E. faecium HM-968 = experiment: Re-sensitization of VRE to vancomycin; type: cell-based, Enterococcus faecium; conditions: for MIC: Enterococcus faecium; for Fold-improvement in MIC of vancomycin: with ½ × MIC Compound 1
E. faecalis HM-201 = experiment: Re-sensitization of VRE to vancomycin; type: cell-based, Enterococcus faecalis; conditions: for MIC: Enterococcus faecalis; for Fold-improvement in MIC of vancomycin: with ½ × MIC Compound 1
E. faecalis HM-934 = experiment: Re-sensitization of VRE to vancomycin; type: cell-based, Enterococcus faecalis; conditions: for MIC: Enterococcus faecalis; for Fold-improvement in MIC of vancomycin: with ½ × MIC Compound 1
MRSA = conditions: topical; cited from earlier work
[10] = system: vancomycin-resistant Enterococcus faecalis HM-201; experiment: C. elegans VRE infection model; type: in vivo, Caenorhabditis elegans; conditions: 20 μg/mL, treated for 18 hours, relative to untreated worms
E. faecium (ATCC 700221) = experiment: Re-sensitization of VRE to gentamicin; type: cell-based, Enterococcus faecium; conditions: sub-inhibitory concentration of 1; data not shown
E. faecalis (ATCC 51299) = experiment: Re-sensitization of VRE to gentamicin; type: cell-based, Enterococcus faecalis; conditions: sub-inhibitory concentration of 1; data not shown
[11] = strains of E. faecalis and E. faecium
[12] = Gram-negative pathogens of Table 1, compound alone
[13] = K. pneumoniae, P. aeruginosa and E. coli, with sub-inhibitory colistin
[14] = K. pneumoniae, P. aeruginosa and E. coli, tested alone

Sequence of human FPPS (HsFPPS) (P14324 whole entry): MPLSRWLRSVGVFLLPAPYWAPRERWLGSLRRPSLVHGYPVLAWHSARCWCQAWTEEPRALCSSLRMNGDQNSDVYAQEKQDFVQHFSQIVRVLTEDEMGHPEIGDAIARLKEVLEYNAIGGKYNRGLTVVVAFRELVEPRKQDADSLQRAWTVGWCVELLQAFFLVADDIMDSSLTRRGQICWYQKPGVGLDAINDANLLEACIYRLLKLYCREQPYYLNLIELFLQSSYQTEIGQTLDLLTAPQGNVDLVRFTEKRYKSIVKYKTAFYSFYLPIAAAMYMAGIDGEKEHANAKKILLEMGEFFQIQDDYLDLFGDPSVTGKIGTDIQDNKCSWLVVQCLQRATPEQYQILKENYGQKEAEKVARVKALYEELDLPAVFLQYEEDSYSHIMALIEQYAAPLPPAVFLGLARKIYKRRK

Ramoplanin
Patients with suppressed gastrointestinal colonization of VRE (VRE): up to 90%

CCCCc1ccc(-c2nc(C)c(/C(C)=N/NC(=N)N)s2)cc1 [Compound 1]
Time-kill result (complete eradication of bacteria) [1]: within two hours
Time-kill result (complete eradication of bacteria) [2]: within two hours
Non-toxic up to (concentration) ([3]; 24 hours incubation): 20 µg/mL
Non-toxic up to (concentration) ([3]; two hours incubation): 20 µg/mL
Shift in MIC over 14 serial passages [4]: no shift in the MIC
Shift in MIC over 14 serial passages [5]: one-fold increase
Cytological effect (E. coli ΔtolC): cells lysed and formed spheroplasts
UDP-N-acetylmuramyl pentapeptide accumulation (E. faecalis NR-31975): large increases
Inhibition of FPPS (human FPPS (HsFPPS)): no inhibition
Percent viable worms (C. elegans AU37): All worms survived
MBC relative to MIC [6, 11]: equal to or one-fold higher
pKa [7]: ~ 7
Affinity to hepatic microsomal enzymes [8]: high affinity to hepatic microsomal enzymes
Caco-2 permeability, apical to basolateral (Caco-2): limited ability to cross from the apical to basolateral surface
Resensitization of VRSA to vancomycin [9]: resensitizes; also recorded: capable of resensitizing
MIC (E. faecalis): 1 to 8 µg/mL (≈ 3.04 to 24.3 µM)
MIC (Gram-negative pathogens; [12]): 8 to 64 µg/mL (≈ 24.3 to 194 µM)

CC[C@H]1OC(=O)[C@H](C)[C@@H](O[C@H]2C[C@@](C)(OC)[C@@H](O)[C@H](C)O2)[C@H](C)[C@@H](O[C@@H]2O[C@H](C)C[C@H](N(C)C)[C@H]2O)[C@](C)(O)C[C@@H](C)C(=O)[C@H](C)[C@@H](O)[C@]1(C)O [Erythromycin, reference compound]
MIC (Gram-negative pathogens): > 128 µg/mL
MIC (Gram-negative pathogens; [13]): 0.5 to 1 µg/mL (≈ 0.681 to 1.36 µM)

O=C(O)c1cn(C2CC2)c2cc(N3CCNCC3)c(F)cc2c1=O [ciprofloxacin]
FIC index (E. faecalis ATCC 51299): 0.50

CN[C@H](CC(C)C)C(=O)N[C@H]1C(=O)N[C@@H](CC(N)=O)C(=O)N[C@H]2C(=O)N[C@H]3C(=O)N[C@H](C(=O)N[C@H](C(=O)O)c4cc(O)cc(O)c4-c4cc3ccc4O)[C@H](O)c3ccc(c(Cl)c3)Oc3cc2cc(c3O[C@@H]2O[C@H](CO)[C@@H](O)[C@H](O)[C@H]2O[C@H]2C[C@](C)(N)[C@H](O)[C@H](C)O2)Oc2ccc(cc2Cl)[C@H]1O [Vancomycin]
UDP-N-acetylmuramyl pentapeptide accumulation (E. faecalis NR-31975): large increases
MIC (E. faecium ATCC 700221; Enterococcus faecium, ATCC700221, read-out: MIC of vancomycin, vancomycin alone): 256 µg/mL
Fold-improvement in MIC of vancomycin (E. faecium ATCC 700221): 256-fold
Fold-improvement in MIC of vancomycin (E. faecium ATCC 700221; listed as vancomycin): 256 fold
MIC (E. faecium HM-968; HM968, read-out: MIC of vancomycin, + ½ × MIC Compound 1): > 128 µg/mL
MIC (E. faecium HM-968; HM968, read-out: MIC of vancomycin, vancomycin alone): 1020 µg/mL
Fold-improvement in MIC of vancomycin (E. faecium HM-968): No change
Fold-improvement in MIC of vancomycin (E. faecium HM-968; listed as vancomycin): no resensitization
MIC (E. faecalis HM-201; HM201, read-out: MIC of vancomycin, + ½ × MIC Compound 1): > 128 µg/mL
MIC (E. faecalis HM-201; HM201, read-out: MIC of vancomycin, vancomycin alone): 512 µg/mL
Fold-improvement in MIC of vancomycin (E. faecalis HM-201): No change
Fold-improvement in MIC of vancomycin (E. faecalis HM-201; listed as vancomycin): no resensitization
MIC (E. faecalis HM-934; HM934, read-out: MIC of vancomycin, + ½ × MIC Compound 1): > 128 µg/mL
MIC (E. faecalis HM-934; HM934, read-out: MIC of vancomycin, vancomycin alone): > 512 µg/mL
Fold-improvement in MIC of vancomycin (E. faecalis HM-934): No change
Fold-improvement in MIC of vancomycin (E. faecalis HM-934; listed as vancomycin): no resensitization

C[C@H]1c2cccc(O)c2C(=O)C2=C(O)[C@]3(O)C(=O)C(C(N)=O)=C(O)[C@@H](N(C)C)[C@@H]3[C@@H](O)[C@@H]21 [doxycycline]
FIC index (E. faecalis ATCC 51299): 2.00

CCCCC#Cc1ccc(-c2nc(C)c(/C(C)=N/NC(=N)N)s2)cc1 [Compound 3]
Time-kill result (complete eradication of bacteria) [1]: four hours
Time-kill result (complete eradication of bacteria) [2]: within two hours
Toxic at (concentration) ([3]; 24 hours incubation): 40 µg/mL
Non-toxic up to (concentration) ([3]; 24 hours incubation): 20 µg/mL
Non-toxic up to (concentration) ([3]; two hours incubation): 40 µg/mL
Shift in MIC over 14 serial passages [4]: no shift in the MIC
Shift in MIC over 14 serial passages [5]: one-fold increase
MBC relative to MIC [6, 11]: equal to or one-fold higher
pKa [7]: ~ 7
Caco-2 permeability, apical to basolateral (Caco-2): limited ability to cross from the apical to basolateral surface
Reduction of MRSA burden in infected skin wounds (MRSA): 96%
MIC (E. faecalis): 1 to 8 µg/mL (≈ 2.83 to 22.6 µM)
MIC (Gram-negative pathogens; [12]): > 128 µg/mL
MIC (Gram-negative pathogens; [14]): > 128 µg/mL
MIC (Gram-negative pathogens; [13]): 1 to 4 µg/mL (≈ 2.83 to 11.3 µM)

CC(=O)NC[C@H]1CN(c2ccc(N3CCOCC3)c(F)c2)C(=O)O1 [Linezolid, reference compound]
Time-kill result (complete eradication of bacteria) [1]: not able to generate a 10^3 × reduction in VRE CFU over 24 hours
Time-kill result (complete eradication of bacteria) [2]: not able to generate a 10^3 × reduction in VRE CFU over 24 hours
Shift in MIC over 14 serial passages [4]: one-fold increase
Shift in MIC over 14 serial passages [5]: No increase in MIC
Decrease in VRE burden in infected worms [10]: unable to reduce the burden of VRE
MBC relative to MIC [6, 11]: more than four-fold higher

CNC(C)C1CCC(N)C(OC2C(N)CC(N)C(OC3OCC(C)(O)C(NC)C3O)C2O)O1 (stereo not shown) [gentamicin]
Resensitization to gentamicin (E. faecium (ATCC 700221)): unable to resensitize
Resensitization to gentamicin (E. faecalis (ATCC 51299)): unable to resensitize

C/C(=N\NC(=N)N)c1sc(-c2ccc(-c3ccccc3)cc2)nc1C [Compound 2]
Time-kill result (complete eradication of bacteria) [1]: not capable of completely eradicating the bacteria
Time-kill result (complete eradication of bacteria) [2]: within two hours
Toxic at (concentration) ([3]; 24 hours incubation): 40 µg/mL
Non-toxic up to (concentration) ([3]; 24 hours incubation): 20 µg/mL
Non-toxic up to (concentration) ([3]; two hours incubation): 40 µg/mL
Shift in MIC over 14 serial passages [4]: one-fold increase
Shift in MIC over 14 serial passages [5]: a one-fold increase in MIC was observed after the sixth passage and an additional two-fold increase was observed after the eleventh passage
MBC relative to MIC ([6]; against E. faecium): more than four-fold higher
pKa [7]: ~ 7
Resensitization of VRSA to vancomycin [9]: capable of resensitizing
MIC (E. faecalis): 16 µg/mL (≈ 45.8 µM)
MIC (Gram-negative pathogens; [12]): > 128 µg/mL
MIC (Gram-negative pathogens; [14]): > 128 µg/mL
MIC (Gram-negative pathogens; [13]): 1 to 4 µg/mL (≈ 2.86 to 11.4 µM)

CC1(C)S[C@@H]2[C@H](NC(=O)[C@H](N)c3ccccc3)C(=O)N2[C@H]1C(=O)O [ampicillin]
FIC index (E. faecalis ATCC 51299): 3.00
